“Also recorded” adds a separate entry of the source. Read-outs that look alike come from different tables or passages of the source. Residues, ends and D or L forms follow the SMILES beside them. *: point of attachment. Cbz = O=C(OCc1ccccc1)*
What was measured:
MCF-7 cells = assay: Cell death as LDH release (absorbance at 492 nm) in MCF-7 cells; format: cell-based; conditions: 100 μM U0126
Procedure: (§1) The stabilization of Bim in cells by blocking Bim degradation may sensitize the cells to an additional anti-cancer agent and promote cell death. […] Cell death was measured as a release of the enzyme lactate dehydrogenase (LDH), which is detected as absorbance at 492 nm.
(§2) Cells were incubated with various concentrations of doxorubicin (μM) for 72 h, in the absence (solid squares) or presence (open circles) of 100 μM U0126.

HCC1419 cells = assay: Cell death as LDH release (absorbance at 492 nm) in HCC1419 cells; format: cell-based; conditions: for EC50: Homo sapiens, LDH release
Procedure: as §1, §2

p42/p44 MAPK = tested on: p42/p44 MAPK
Procedure: (§3) In the top and middle panels of the figure, phosphorylation of p42/p44 MAPK was determined by immunoblot, and the blots were re-probed for total p42/p44 MAPK expression. In the bottom panel of the figure, cells were subjected to preconditioning ischemia and then recovered in the presence of U0126. Bim expression was determined by immunoblot. Data shown are representative of three independent experiments.
As a control, the same blot was probed for non-phospho-p42/p44 MAPK.

Bim = conditions: following preconditioning ischemia
From the text: The experiments described in this example investigate the degradation of the pro-apoptotic Bcl-2 family member Bim as a mechanism of rapid ischemic tolerance.

[1] = tested on: rat cortical neuronal cultures; assay: Rapid ischemic tolerance: cell death after harmful ischemia (OGD) with preconditioning ischemia, propidium iodide staining; format: cell-based; conditions: for neuroprotective effect of preconditioning: 10 μM, one hour incubation following 30 minutes of preconditioning OGD, cell death 24 hours after 120 minutes of harmful ischemia; for rapid ischemic tolerance: neuronal cultures, preconditioning ischemia
Procedure: (§4) Neurons were exposed to ischemic conditions, namely, oxygen and glucose deprivation (OGD), by washing the cells with phosphate-buffered saline (NaCl ([…]), KCl (2.7 mM), Na2HPO4 (10 mM), KH2PO4 (1.7 mM), pH 7.4) supplemented with 0.5 mM CaCl2, 1.0 mM MgCl2 and placing the cells (in culture dishes) in an anaerobic chamber (85% N2, 5% H2, 10% CO2; 35° C.) for 30 minutes (preconditioning ischemia) or 120 minutes (harmful ischemia).
Cell death was assessed 24 hours following 120 minutes of harmful ischemia using propidium iodide staining. Data shown are mean±S.E. (n=8). Data were analyzed by one-way ANOVA, with Bonferroni's post-hoc test. *, p<0.05.
Cells were incubated for one hour following 30 minutes of preconditioning OGD with either PD98059 or U0126 (both 10 μM), which are compounds that prevent p42/p44 MAPK activation by inhibiting an upstream regulatory MAPK kinase (MEK).

[2] = tested on: GST-Bim polypeptide with TRIM2 protein; conditions: cells incubated with inhibitor, preconditioning ischemia
Procedure: To follow up on this observation, co-immunoprecipitation was utilized to determine whether TRIM2 binding to Bim correlates with the degradation of Bim following preconditioning ischemia in neuronal cultures. GST-Bim was incubated with cell lysates from control neurons (“CONT”; open bars) and neurons exposed to preconditioning ischemia (“PC”; hatched bars). GST-Bim interacting with TRIM2 then was co-immunoprecipitated with anti-TRIM 2 antibody and detected by immunoblot with an anti-GST antibody.

Bim protein = Bim protein levels by immunoblot following preconditioning ischemia; format: cell-based, rat; conditions: for Bim degradation: following preconditioning ischemia
Procedure: as §4
Bim protein levels were determined by immunoblotting, and then the blots were re-probed with α-tubulin to control for loading.
as §3
The effect of U0126 on Bim protein levels also was investigated following 30 minutes of OGD.

Which “responsiveness to combination of doxorubicin and U0126 relative to doxorubicin alone” value (MCF-7 cells; MCF-7 cells, 72 h) does the source give for COc1cccc2c1C(=O)c1c(O)c3c(c(O)c1C2=O)C[C@@](O)(C(=O)CO)C[C@@H]3O[C@H]1C[C@H](N)[C@H](O)[C@H](C)O1 [doxorubicin] here?
The value was “no increased responsiveness”.

And the “shift in the response to doxorubicin when U0126 is present” value (HCC1419 cells; HCC1419 cells, 72 h, 100 μM U0126)?
Its value is “leftward shift”.

And the EC50 (HCC1419 cells; HCC1419 cells, 72 h, absence of U0126, read-out: calculated EC50 of doxorubicin alone)?
Its EC50 is 60 µM.

And the EC50 (HCC1419 cells; HCC1419 cells, 72 h, presence of 100 μM U0126, read-out: calculated EC50 of doxorubicin when combined with U0126)?
Its EC50 is 0.01 µM.

For N#CC(=C(/N)Sc1ccccc1N)/C(C#N)=C(\N)Sc1ccccc1N [U0126, 1,4-diamino-2,3-dicyano-1,4-bis(2-aminophenylthio)butadiene], which “phosphorylation of MAPK in control cells” value (p42/p44 MAPK; control cells treated with U0126 alone) is on record?
Its value is “no phosphorylation of MAPK”.

What about the “total levels of p42/p44 MAPK” value (p42/p44 MAPK; following preconditioning ischemia or U0126 treatment) of the same molecule?
The value was “did not change”.

What about the “increase in p42/p44 MAPK phosphorylation following preconditioning ischemia” value (p42/p44 MAPK; one hour following preconditioning ischemia) of the same molecule?
Its value is “blocked”.

And the “enhancement of doxorubicin-induced cell death” value (MCF-7 cells; MCF-7 cells (high Bim:TRIM2 ratio))?
The value was “not observed”.

And the Bim ubiquitination (Bim)?
Its Bim ubiquitination is “reduced”.

And the “enhancement of doxorubicin-induced cell death” value (HCC1419 cells; HCC1419 cells (low Bim:TRIM2 ratio), 100 μM U0126)?
Its value is “enhancement”.

And the “cell death (LDH release)” value (HCC1419 cells; HCC1419 cells, U0126 alone)?
Its value is “does not induce cell death”.

What about the “neuroprotective effect of preconditioning” value [1] of the same molecule?
The value was “blocked”.

What about the rapid ischemic tolerance [1] of the same molecule?
The rapid ischemic tolerance was “blocked rapid ischemic tolerance; also recorded: blocks”.

What about the “co-immunoprecipitation of GST-Bim polypeptide with TRIM2 protein” value [2] of the same molecule?
The value was “reduced”.

And the “Bim protein expression in control-treated cells” value (Bim protein; control-treated cells, no preconditioning)?
Its value is “no effect”.

What about the Bim degradation (Bim protein) of the same molecule?
The Bim degradation was “reduced; also recorded: blocks”.

What about the “decrease in Bim protein expression at one hour following 30 minutes of preconditioning ischemia” value (Bim protein; recovery in the presence of U0126) of the same molecule?
Its value is “blocked”.

Which “neuroprotective effect of preconditioning” value [1] does the source give for COc1cccc(-c2cc(=O)c3ccccc3o2)c1N [PD98059, 2-(2-Amino-3-methoxyphenyl)-4H-1-benzopyran-4-one] here?
The value was “blocked”.

For CC(C)C[C@@H](C=O)NC(=O)[C@H](CC(C)C)NC(=O)[C@H](CC(C)C)NC(=O)OCc1ccccc1 [MG-132] (Cbz-Leu-Leu-Leu-aldehyde), which rapid ischemic tolerance [1] is on record?
The rapid ischemic tolerance was “blocked rapid ischemic tolerance”.

And the Bim degradation (Bim protein)?
Its Bim degradation is “prevented Bim degradation”.

Source: US8304202B2, “Interaction of BIM with TRIM2” (priority 2007, dated 2012)
